Laboratory results as given in patent US20260263555A1, “ANNEXIN A1 DELAYED DOSING” (Reso Ther Pharma A/S, priority 2023, published 2026).
“Also recorded” adds a separate entry of the source. No end group written: not given here.

Legend:
[1] = tested on: rat model of acute myocardial infarction; assay: Delayed Annexin A1 peptide dosing in a rat model of acute myocardial infarction (30 minutes ischemia, 24 hours reperfusion; Evans blue/TTC infarct size); type: in vivo, Sprague Dawley rats; settings: vs vehicle
Experimental: Myocardial infarction was induced by 30 minutes ischemia via obstruction of coronary perfusion by occlusion of the left coronary artery followed by 24 hours reperfusion. Sprague Dawley rats were treated by administration with Peptide 1 (30 ug/kg) three times with treatment initiation either at the time of reperfusion (T0 h, T3 h, T6 h) (Group 1), or with a delayed treatment initiation starting either at 1 hour post establishment of reperfusion (T1 h, T4 h, T7 h) (Group 2), or at 2 hours post establishment of reperfusion (T2 h, T5 h, T8 h) (Group 3).
At the end of 24 hours reperfusion period, the left coronary artery was reoccluded and Evans blue dye solution injected. Hearts were excised from the rat and stored at −20° C. before being sliced into 1 mm thick transverse sections. Heart sections were incubated with triphenyltetrazolium chloride (TTC, 1%) at 37° C. for 30 minutes to demarcate the viable and nonviable myocardium within the risk zone. Area at risk and infarcted area were determined using image software.

[2] = tested on: recruitment of neutrophils to the site of injury/inflammation; settings: models of myocardial I/R, mesentery I/R, glycogen peritonitis and IL1 air pouch; cited from earlier work

Substance	infarct size ([1]; Group 1: 30 ug/kg three times (T0 h, T3 h, T6 h), first dosage at establishment of reperfusion)	infarct size ([1]; Group 2: 30 ug/kg three times (T1 h, T4 h, T7 h), first dosage 1 hour post establishment of reperfusion)	infarct size ([1]; Group 3: 30 ug/kg three times (T2 h, T5 h, T8 h), first dosage 2 hours post establishment of reperfusion)	recruitment of neutrophils to the site of injury/inflammation [2]
AMVSEFLKQAWFIENEEQEYVQTLKSSKGGPGSAVSPYPTFNPSSDV (AMVSEFLKQAWFIENEEQEYVQTLKSSKGGPGSAVSPYPTFNPSSDV-NH2; ends and bridges not checked) [Peptide 1]	significantly reduced infarct size	reduced infarct size to a similar degree; also recorded: significantly reduced infarct size	reduced infarct size to a similar degree; also recorded: significantly reduced infarct size	
Ac2-26: Annexin A1 peptide which mimics the 2nd to the 26th amino acids of the 54-amino acid N-terminal region (Ac-AMVSEFLKQAWFIENEEQEYVQTVK; UniProt P04083 2-26, looked up, fragment)				significantly reduce the recruitment of neutrophils
